Assay results as given in the NIST ThermoML archive (doi:10.1021/je600557n).

Assays:
[1] = xn = mol fraction of the nth substance listed; settings: 101 kPa, Liquid
[2] = molar heat capacity at constant pressure; xn = mol fraction of the nth substance listed; settings: 101 kPa, Liquid, Small sample (50 mg) DSC
[3] = refractive index (Na D-line) (dimensionless); xn = mol fraction of the nth substance listed; settings: 101 kPa, Liquid, Standard Abbe refractometry

C1CCOCC1 [tetrahydropyran] + C[S+](C)[O-]
Settings	mass density, [1] [kg/m3]	molar heat capacity at constant pressure, [2] [J/K/mol]	refractive index, [3]	viscosity, [1] [mPa·s]
293.15 K, x2 = 0.073	895.7	–	1.4268	0.906
293.15 K, x2 = 0.0996	–	148.8	–	–
293.15 K, x2 = 0.1171	903.11	–	1.4288	0.931
293.15 K, x2 = 0.1317	–	149.7	–	–
293.15 K, x2 = 0.2176	920.63	–	1.4336	1.005
293.15 K, x2 = 0.2636	–	153	–	–
293.15 K, x2 = 0.3108	937.76	–	1.4383	1.082
293.15 K, x2 = 0.3636	–	154.6	–	–
293.15 K, x2 = 0.4069	956.42	–	1.4433	1.173
293.15 K, x2 = 0.4832	–	155.9	–	–
293.15 K, x2 = 0.4982	975.18	–	1.4483	1.274
293.15 K, x2 = 0.5309	–	156	–	–
293.15 K, x2 = 0.5763	–	155.8	–	–
293.15 K, x2 = 0.5786	992.6	–	1.4528	1.377
293.15 K, x2 = 0.6227	1002.56	–	1.4554	1.433
293.15 K, x2 = 0.6527	1009.49	–	1.4573	1.476
293.15 K, x2 = 0.6773	–	155.5	–	–
293.15 K, x2 = 0.7338	1028.89	–	1.4624	1.605
293.15 K, x2 = 0.7586	–	154.7	–	–
293.15 K, x2 = 0.8085	1047.69	–	1.4673	1.75
293.15 K, x2 = 0.8412	–	153.7	–	–
293.15 K, x2 = 0.9237	–	152	–	–
293.15 K, x2 = 0.9321	1080.93	–	1.4761	2.022
293.15 K, x2 = 0.9579	–	151.4	–	–
303.15 K, x2 = 0.0996	–	152.5	–	–
303.15 K, x2 = 0.1175	893.4	–	1.4226	0.804
303.15 K, x2 = 0.1317	–	153.1	–	–
303.15 K, x2 = 0.2209	911.49	–	1.4275	0.865
303.15 K, x2 = 0.2636	–	155	–	–
303.15 K, x2 = 0.3113	928.13	–	1.4322	0.925
303.15 K, x2 = 0.3636	–	156.1	–	–
303.15 K, x2 = 0.411	947.52	–	1.4375	1.001
303.15 K, x2 = 0.4832	–	156.6	–	–
303.15 K, x2 = 0.4945	964.64	–	1.4422	1.078
303.15 K, x2 = 0.5309	–	156.8	–	–
303.15 K, x2 = 0.5341	973.08	–	1.4444	1.112
303.15 K, x2 = 0.5763	–	156.5	–	–
303.15 K, x2 = 0.5869	984.64	–	1.4477	1.168
303.15 K, x2 = 0.6597	1001.27	–	1.4522	1.25
303.15 K, x2 = 0.6773	–	156	–	–
303.15 K, x2 = 0.7348	1019.24	–	1.4571	1.345
303.15 K, x2 = 0.7586	–	155.5	–	–
303.15 K, x2 = 0.8105	1038.27	–	1.4621	1.453
303.15 K, x2 = 0.8412	–	154.6	–	–
303.15 K, x2 = 0.876	1055.53	–	1.4666	1.563
303.15 K, x2 = 0.9237	–	153.2	–	–
303.15 K, x2 = 0.9393	1072.96	–	1.471	1.679
303.15 K, x2 = 0.9579	–	152.9	–	–
313.15 K, x2 = 0.07165	875.38	–	1.4152	0.681
313.15 K, x2 = 0.0996	–	157.1	–	–
313.15 K, x2 = 0.1195	883.44	–	1.4173	0.701
313.15 K, x2 = 0.1317	–	157.7	–	–
313.15 K, x2 = 0.2128	899.76	–	1.422	0.745
313.15 K, x2 = 0.2636	–	159.3	–	–
313.15 K, x2 = 0.3143	918.44	–	1.4272	0.803
313.15 K, x2 = 0.3636	–	160	–	–
313.15 K, x2 = 0.4102	937.09	–	1.4323	0.863
313.15 K, x2 = 0.4832	–	160.5	–	–
313.15 K, x2 = 0.4969	954.93	–	1.4375	0.927
313.15 K, x2 = 0.5309	–	160.3	–	–
313.15 K, x2 = 0.5311	962.23	–	1.4394	0.953
313.15 K, x2 = 0.5763	–	160.1	–	–
313.15 K, x2 = 0.5865	974.36	–	1.4429	0.997
313.15 K, x2 = 0.6595	991.06	–	1.4474	1.063
313.15 K, x2 = 0.6773	–	159.3	–	–
313.15 K, x2 = 0.7295	1007.8	–	1.452	1.136
313.15 K, x2 = 0.7586	–	158.5	–	–
313.15 K, x2 = 0.8349	1034.54	–	1.4592	1.26
313.15 K, x2 = 0.8412	–	157.3	–	–
313.15 K, x2 = 0.9237	–	155.8	–	–
313.15 K, x2 = 0.938	1062.5	–	1.4663	1.405
313.15 K, x2 = 0.9579	–	155.1	–	–
